The source of these data is BindingDB's records for doi:10.1021/jm990967h (Glaxo Wellcome Medicines Research Centre, 2000).

SMILES strings stand for the structures. Values joined by “and” are separate entries in the source; they are usually repeats but may differ in a detail not shown here. Equal values may be shown once.

This assay concerns the target Gastrin/cholecystokinin type B receptor (Cavia porcellus). The experiment in a line: In vitro inhibition of binding of [3H]pCCK-8 against Cholecystokinin type B receptor of guinea pig cerebral cortex membranes.
As to `CC(C)(C)CCN1C(=O)C(NC(=O)Nc2ccccc2)C(=O)N(c2ccccc2)c2ccccc21` (stereo not given), the Ki came out at 0.676 nM.

The compound `O=C(O)CCCOc1ccc(NC(=O)NC2C(=O)N(CC34C[C@H]5C[C@@H](C3)C[C@@H](C4)C5)c3ccccc3N(c3ccccc3)C2=O)cc1` (stereo not given in full) came in with a Ki of 3.8 nM.

Consider `O=C(Nc1ccccc1)NC1C(=O)N(c2ccccc2)c2ccccc2N(C2CC3CCC2C3)C1=O` (stereo not given), for which the Ki is 1.5 nM.

In the case of `CC(O)C(O)Nc1cccc(NC(=O)NC2C(=O)N(CC34C[C@H]5C[C@@H](C3)C[C@@H](C4)C5)c3ccccc3N(c3ccccc3)C2=O)c1` (stereo not given in full), the Ki was 1.3 nM and 0.676 nM.

Turning to `CN(C)c1ccc(NC(=O)NC2C(=O)N(CCC3CCCC3)c3ccccc3N(c3ccccc3F)C2=O)cc1` (stereo not given), the affinity corresponds to a Ki of 4.7 nM.

`O=C(Nc1cccc(O)c1)NC1C(=O)N(CC23C[C@H]4C[C@@H](C2)C[C@@H](C3)C4)c2ccccc2N(c2ccccc2)C1=O` (stereo not given in full) came in with a Ki of 0.575 nM.

For the compound `Nc1cccc(NC(=O)NC2C(=O)N(CC34C[C@H]5C[C@@H](C3)C[C@@H](C4)C5)c3ccccc3N(c3ccccc3)C2=O)c1` (stereo not given in full), the inhibition constant Ki was determined as 0.295 nM. This Ki lies about 1.9-fold lower than the previous one.

The compound `CN(C)c1cccc(NC(=O)NC2C(=O)N(CCC34C[C@H]5C[C@@H](C3)C[C@@H](C4)C5)c3ccccc3N(c3ccccc3)C2=O)c1` (stereo not given in full) returned a Ki of 13 nM.

`O=C(Nc1ccccc1)NC1C(=O)N(CCc2ccccc2)c2ccccc2N(c2ccccc2)C1=O` (stereo not given) registered a Ki of 8.3 nM.

With `O=C(Nc1cccc(Cl)c1)NC1C(=O)N(c2ccccc2)c2ccccc2N(C2CC3CCC2C3)C1=O` (stereo not given), the Ki came to 1.7 nM.

As to `CC(C)CC(C)N1C(=O)C(NC(=O)Nc2ccccc2)C(=O)N(c2ccccc2)c2ccccc21` (stereo not given), affinity was put at a Ki of 2.1 nM. The Ki values of the last two compounds are within 1.5-fold of each other.

Regarding `CC(C)CCN1C(=O)C(NC(=O)Nc2cccc(N(C)C)c2)C(=O)N(c2ccccc2F)c2ccccc21` (stereo not given), the Ki was 0.209 nM and 1.9 nM and 0.251 nM.

Compound `O=C(Nc1cccc(C(=O)OCCN2CCOCC2)c1)NC1C(=O)N(CC23C[C@H]4C[C@@H](C2)C[C@@H](C3)C4)c2ccccc2N(c2ccccc2)C1=O` (stereo not given in full) displayed a Ki of 0.562 nM.

Consider `CC(C)(C)CCN1C(=O)C(NC(=O)Nc2ccccc2)C(=O)N(c2ccccc2F)c2ccccc21` (stereo not given), for which affinity was put at a Ki of 0.955 nM.

Compound `CN(C)c1cccc(NC(=O)NC2C(=O)N(CC34C[C@H]5C[C@@H](C3)C[C@@H](C4)C5)c3ccccc3N(c3ccccc3)C2=O)c1` (stereo not given in full) registered an inhibition constant (Ki) of 1.1 nM.

With `CCCCN1C(=O)C(NC(=O)Nc2ccccc2)C(=O)N(c2ccccc2)c2ccccc21` (stereo not given), the inhibition constant (Ki) was 6.2 nM.

Regarding `CC(C)Cn1nnc(-c2cccc(NC(=O)NC3C(=O)N(CCC(C)(C)C)c4ccccc4N(c4ccccc4)C3=O)c2)n1` (stereo not given), the Ki came to 2.5 nM. This Ki is about 2.5-fold lower than that of the compound before.

For the compound `O=C(Nc1cccc([N+](=O)[O-])c1)NC1C(=O)N(CC23C[C@H]4C[C@@H](C2)C[C@@H](C3)C4)c2ccccc2N(c2ccccc2)C1=O` (stereo not given in full), the Ki is 1.9 nM.

With `O=C(Nc1ccc(O)cc1)NC1C(=O)N(CC23C[C@H]4C[C@@H](C2)C[C@@H](C3)C4)c2ccccc2N(c2ccccc2)C1=O` (stereo not given in full), the Ki was 0.661 nM.

For `CC(C)(C)CCN1C(=O)C(NC(=O)Nc2cccc(OC(F)(F)F)c2)C(=O)N(c2ccccc2)c2ccccc21` (stereo not given), the affinity corresponds to a Ki of 2.9 nM.

The compound `O=C(Nc1cccc(C(=O)O)c1)NC1C(=O)N(CC23C[C@H]4C[C@@H](C2)C[C@@H](C3)C4)c2ccccc2N(c2ccccc2)C1=O` (stereo not given in full) returned a Ki of 0.977 nM.

In turn, `O=C(Nc1ccc(Br)cc1)NC1C(=O)N(CC23C[C@H]4C[C@@H](C2)C[C@@H](C3)C4)c2ccccc2N(c2ccccc2)C1=O` (stereo not given in full) registered a Ki of 1.4 nM.

`CN(C)c1cccc(NC(=O)NC2C(=O)N(CCC(C)(C)C)c3ccccc3N(c3ccccc3F)C2=O)c1` (stereo not given) yielded a Ki of 0.603 nM.

As to `CSc1cccc(NC(=O)NC2C(=O)N(CCC34C[C@H]5C[C@@H](C3)C[C@@H](C4)C5)c3ccccc3N(c3ccccc3)C2=O)c1` (stereo not given in full), the inhibition constant (Ki) was determined as 60 nM.

Regarding `O=C(Nc1cccc(C2N=NN=N2)c1)NC1C(=O)N(CCC2CCCC2)c2ccccc2N(c2ccccc2F)C1=O` (stereo not given), affinity was put at a Ki of 0.224 nM.

The compound `O=C(Nc1ccccc1)NC1C(=O)N(CCC23C[C@H]4C[C@@H](C2)C[C@@H](C3)C4)c2ccccc2N(c2ccccc2)C1=O` (stereo not given in full) showed a Ki of 34 nM.

In the case of `CC(C)(C1CCCC1)N1C(=O)C(NC(=O)Nc2cccc(C3N=NN=N3)c2)C(=O)N(c2ccccc2)c2ccccc21` (stereo not given), affinity was put at a Ki of 1.5 nM.

With `CCOC(=O)CCCOc1ccc(NC(=O)NC2C(=O)N(CC34C[C@H]5C[C@@H](C3)C[C@@H](C4)C5)c3ccccc3N(c3ccccc3)C2=O)cc1` (stereo not given in full), the Ki was determined as 5.2 nM.

`CSc1cccc(NC(=O)NC2C(=O)N(CCC(C)(C)C)c3ccccc3N(c3ccccc3F)C2=O)c1` (stereo not given) showed a Ki of 0.724 nM.

In the case of `CN(C)c1cccc(NC(=O)NC2C(=O)N(c3ccccc3)c3ccccc3N(C3[C@H]4C[C@@H]5C[C@@H](C[C@H]3C5)C4)C2=O)c1` (stereo not given in full), the affinity corresponds to a Ki of 2.3 nM.

With `CSc1cccc(NC(=O)NC2C(=O)N(CCC(C)C)c3ccccc3N(c3ccccc3F)C2=O)c1` (stereo not given), the Ki came to 0.331 nM.

In the case of `CC(C)(C)CCN1C(=O)C(NC(=O)Nc2cccc(C#N)c2)C(=O)N(c2ccccc2)c2ccccc21` (stereo not given), the affinity corresponds to a Ki of 0.646 nM. Against the preceding compound, the Ki is about 2-fold higher.

On to `CN(C)c1cccc(NC(=O)NC2C(=O)N(CCC3CCCC3)c3ccccc3N(c3ccccc3F)C2=O)c1` (stereo not given), for which the Ki was 0.676 nM. This Ki and that of the compound before are within 1.5-fold of each other.

In turn, `CSc1cccc(NC(=O)NC2C(=O)N(CCC(C)(C)C)c3ccccc3N(c3ccccc3)C2=O)c1` (stereo not given) returned a Ki of 0.49 nM.

The compound `O=C(Nc1cccc(CO)c1)NC1C(=O)N(CC23C[C@H]4C[C@@H](C2)C[C@@H](C3)C4)c2ccccc2N(c2ccccc2)C1=O` (stereo not given in full) displayed a Ki of 0.178 nM.

`CC(C)C(C)CN1C(=O)C(NC(=O)Nc2ccccc2)C(=O)N(c2ccccc2)c2ccccc21` (stereo not given) gave an inhibitory constant (Ki) of 1.1 nM.

Consider `O=C(Nc1ccccc1)NC1C(=O)N(CC2[C@H]3C[C@@H]4C[C@@H](C[C@H]2C4)C3)c2ccccc2N(c2ccccc2)C1=O` (stereo not given in full), for which the Ki was 1.9 nM.

Compound `CN(C)c1cccc(NC(=O)NC2C(=O)N(c3ccccc3)c3ccccc3N(C3CC4CCC3C4)C2=O)c1` (stereo not given) registered a Ki of 1 nM. This Ki lies about 1.9-fold lower than the previous one.

`O=Cc1cccc(NC(=O)NC2C(=O)N(CC34C[C@H]5C[C@@H](C3)C[C@@H](C4)C5)c3ccccc3N(c3ccccc3)C2=O)c1` (stereo not given in full) had a Ki of 0.955 nM. The Ki values of the last two compounds are within 1.5-fold of each other.

In the case of `CC(C)CCN1C(=O)C(NC(=O)Nc2ccccc2)C(=O)N(c2ccccc2F)c2ccccc21` (stereo not given), the Ki was 7.8 nM. This Ki is about 8.2-fold higher than that of the compound before.

Take `O=C(Nc1ccccc1)NC1C(=O)N(CCC2CCCC2)c2ccccc2N(c2ccccc2F)C1=O` (stereo not given): the Ki was 0.724 nM. Compared with the last compound, the Ki is about 11-fold lower.

Compound `O=C(Nc1cccc(C2N=NN=N2)c1)NC1C(=O)N(c2ccccc2)c2ccccc2N(C2[C@H]3C[C@@H]4C[C@@H](C[C@H]2C4)C3)C1=O` (stereo not given in full) registered an inhibition constant Ki of 2.1 nM.

Consider `CCOC(=O)c1cccc(NC(=O)NC2C(=O)N(CC34C[C@H]5C[C@@H](C3)C[C@@H](C4)C5)c3ccccc3N(c3ccccc3)C2=O)c1` (stereo not given in full), for which the Ki turned out to be 3 nM.

Regarding `CC(C)(C)CCN1C(=O)C(NC(=O)Nc2cccc(C3N=NN=N3)c2)C(=O)N(c2ccccc2)c2ccccc21` (stereo not given), the Ki was 0.288 nM. Compared with the last compound, the Ki is about 10-fold lower.

As to `CC(=O)Nc1cccc(NC(=O)NC2C(=O)N(CC34C[C@H]5C[C@@H](C3)C[C@@H](C4)C5)c3ccccc3N(c3ccccc3)C2=O)c1` (stereo not given in full), the Ki worked out at 1.3 nM.

The Ki is a measure of affinity in units of concentration, obtained from inhibition or displacement.
